Measurements reported in the NIST ThermoML archive (doi:10.1021/je700428f).

Legend:
[1] = xn = mol fraction of the nth substance listed; settings: 101 kPa, Liquid
[2] = 101 kPa, Liquid; for viscosity: Capillary tube (Ostwald / Ubbelohde) method

CCCCCCCCCC [decane] + COC(C)(C)C
[1], x2 = 0
Settings	mass density [kg/m3]
273.15 K	745.374
278.15 K	741.257
283.15 K	737.502
288.15 K	733.733
293.15 K	729.958
298.15 K	726.174
303.15 K	722.377
308.15 K	718.573
313.15 K	714.753
318.15 K	710.92
323.15 K	707.074
328.15 K	703.213
333.15 K	699.334
338.15 K	695.439
343.15 K	691.522
348.15 K	687.587
353.15 K	683.631
358.15 K	679.651
363.15 K	675.648

CCCCCCCCC [nonane]
[2]
Settings	mass density [kg/m3]	viscosity [mPa·s]
273.15 K	733.184	0.972
278.15 K	729.335	0.896
283.15 K	725.473	0.828
288.15 K	721.603	0.768
293.15 K	717.725	0.716
298.15 K	713.834	0.669
303.15 K	709.929	0.628
308.15 K	706.011	0.59
313.15 K	702.076	0.555
318.15 K	698.124	0.522
323.15 K	694.151	0.493
328.15 K	690.165	0.466
333.15 K	686.154	0.442
338.15 K	682.116	0.42
343.15 K	678.06	0.399
348.15 K	673.979	0.38
353.15 K	669.872	0.362
358.15 K	665.73	0.346
363.15 K	661.557	–

COC(C)(C)C [2-methoxy-2-methylpropane] + CCCCCCCCC
[1], x1 = 1
Settings	mass density [kg/m3]
273.15 K	761.34
278.15 K	756.14
283.15 K	751.02
288.15 K	745.85
293.15 K	740.65
298.15 K	735.4
303.15 K	730.1
308.15 K	724.82
313.15 K	719.42
318.15 K	713.96

CCCCCCCCCC [decane]
[2]
Settings	mass density [kg/m3]
273.15 K	745.374
278.15 K	741.257
283.15 K	737.502
288.15 K	733.733
293.15 K	729.958
298.15 K	726.174
303.15 K	722.377
308.15 K	718.573
313.15 K	714.753
318.15 K	710.92
323.15 K	707.074
328.15 K	703.213
333.15 K	699.334
338.15 K	695.439
343.15 K	691.522
348.15 K	687.587
353.15 K	683.631
358.15 K	679.651
363.15 K	675.648

COC(C)(C)C [2-methoxy-2-methylpropane]
[2]
Settings	mass density [kg/m3]
273.15 K	761.34
278.15 K	756.14
283.15 K	751.02
288.15 K	745.85
293.15 K	740.65
298.15 K	735.4
303.15 K	730.1
308.15 K	724.82
313.15 K	719.42
318.15 K	713.96
